Data set [1] can be described thus: Disruption of ARC5 domain of TNKS1 (unknown origin)/USP25 (unknown origin) protein interaction assessed as inhibition constant. Also on record: species or system Homo sapiens.
Data set [2] has as its system SW480. The data set can be described thus: Antitumor activity against human SW480 cells xenografted in mouse assessed as reduction in tumor size at 300 mg/kg, IP relative to control. In kind it is functional. Also noted: scale not given: the % may be the effect or the level left.
Data set [3] deals with SW480. In words: Antitumor activity against human SW480 cells xenografted in mouse assessed as reduction in tumor size at 150 mg/kg, IP relative to control. In kind it is functional. Also on record: scale not given: the % may be the effect or the level left. In general terms: Xenograft models place foreign cells or tissue in a host animal.
Data set [4] deals with T1, Poly [ADP-ribose] polymerase 2 (Homo sapiens, UniProt Q9UGN5). In words: Inhibition of PAPR2 (unknown origin).
Data set [5] addresses T2, Poly [ADP-ribose] polymerase 1 (Homo sapiens, UniProt P09874). In words: Inhibition of PARP1 (unknown origin).
Data set [6] concerns the target T3, Poly [ADP-ribose] polymerase tankyrase-2 (Homo sapiens, UniProt Q9H2K2).
T3 sequence (Q9H2K2 whole entry): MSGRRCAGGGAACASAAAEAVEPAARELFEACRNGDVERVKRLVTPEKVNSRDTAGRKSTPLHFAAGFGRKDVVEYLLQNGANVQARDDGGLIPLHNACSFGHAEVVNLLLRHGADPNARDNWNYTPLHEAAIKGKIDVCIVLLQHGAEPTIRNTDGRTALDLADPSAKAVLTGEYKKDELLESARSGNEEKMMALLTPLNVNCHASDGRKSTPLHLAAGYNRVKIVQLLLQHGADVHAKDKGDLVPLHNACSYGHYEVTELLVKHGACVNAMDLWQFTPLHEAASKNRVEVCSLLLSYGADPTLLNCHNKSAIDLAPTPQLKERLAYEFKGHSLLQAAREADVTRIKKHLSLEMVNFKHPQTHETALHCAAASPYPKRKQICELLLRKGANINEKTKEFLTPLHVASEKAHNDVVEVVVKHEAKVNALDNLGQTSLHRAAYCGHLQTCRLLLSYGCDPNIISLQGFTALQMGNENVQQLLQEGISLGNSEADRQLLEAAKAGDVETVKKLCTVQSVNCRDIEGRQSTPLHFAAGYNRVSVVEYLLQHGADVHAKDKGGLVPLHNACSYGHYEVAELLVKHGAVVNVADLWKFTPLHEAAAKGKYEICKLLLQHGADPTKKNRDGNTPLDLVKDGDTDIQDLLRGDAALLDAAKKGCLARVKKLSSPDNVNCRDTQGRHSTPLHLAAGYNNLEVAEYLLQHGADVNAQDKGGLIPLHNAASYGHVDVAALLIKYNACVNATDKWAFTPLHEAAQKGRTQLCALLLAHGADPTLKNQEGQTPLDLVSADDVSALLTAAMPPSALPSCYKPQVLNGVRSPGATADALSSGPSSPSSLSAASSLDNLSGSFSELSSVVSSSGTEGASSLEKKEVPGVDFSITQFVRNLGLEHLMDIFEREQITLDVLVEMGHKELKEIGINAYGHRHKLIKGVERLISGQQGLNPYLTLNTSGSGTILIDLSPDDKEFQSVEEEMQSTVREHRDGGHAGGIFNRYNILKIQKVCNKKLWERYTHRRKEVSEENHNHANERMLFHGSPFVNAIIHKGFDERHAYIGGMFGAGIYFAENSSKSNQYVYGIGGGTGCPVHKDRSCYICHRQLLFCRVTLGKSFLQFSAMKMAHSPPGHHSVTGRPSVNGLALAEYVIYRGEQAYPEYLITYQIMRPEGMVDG
The data set can be described thus: Inhibition of TNKS2 (unknown origin).

Data set [7] in a line: Toxicity in mouse xenografted with COLO 320DM cells assessed as reduction in body weight at 30 mg/kg, ip daily relative to control. It counts as organism-based. Also on record: scale not given: the % may be the effect or the level left. To be noted: in vivo.
Data set [8] in a line: Toxicity in mouse xenografted with COLO 320DM cells assessed as reduction in body weight at 60 mg/kg, po daily relative to control. It counts as organism-based. Also noted: scale not given: the % may be the effect or the level left. To be noted: in vivo.
The target of data set [9] is T4, Poly [ADP-ribose] polymerase tankyrase-1 (Homo sapiens, UniProt O95271).
T4 sequence (O95271 whole entry): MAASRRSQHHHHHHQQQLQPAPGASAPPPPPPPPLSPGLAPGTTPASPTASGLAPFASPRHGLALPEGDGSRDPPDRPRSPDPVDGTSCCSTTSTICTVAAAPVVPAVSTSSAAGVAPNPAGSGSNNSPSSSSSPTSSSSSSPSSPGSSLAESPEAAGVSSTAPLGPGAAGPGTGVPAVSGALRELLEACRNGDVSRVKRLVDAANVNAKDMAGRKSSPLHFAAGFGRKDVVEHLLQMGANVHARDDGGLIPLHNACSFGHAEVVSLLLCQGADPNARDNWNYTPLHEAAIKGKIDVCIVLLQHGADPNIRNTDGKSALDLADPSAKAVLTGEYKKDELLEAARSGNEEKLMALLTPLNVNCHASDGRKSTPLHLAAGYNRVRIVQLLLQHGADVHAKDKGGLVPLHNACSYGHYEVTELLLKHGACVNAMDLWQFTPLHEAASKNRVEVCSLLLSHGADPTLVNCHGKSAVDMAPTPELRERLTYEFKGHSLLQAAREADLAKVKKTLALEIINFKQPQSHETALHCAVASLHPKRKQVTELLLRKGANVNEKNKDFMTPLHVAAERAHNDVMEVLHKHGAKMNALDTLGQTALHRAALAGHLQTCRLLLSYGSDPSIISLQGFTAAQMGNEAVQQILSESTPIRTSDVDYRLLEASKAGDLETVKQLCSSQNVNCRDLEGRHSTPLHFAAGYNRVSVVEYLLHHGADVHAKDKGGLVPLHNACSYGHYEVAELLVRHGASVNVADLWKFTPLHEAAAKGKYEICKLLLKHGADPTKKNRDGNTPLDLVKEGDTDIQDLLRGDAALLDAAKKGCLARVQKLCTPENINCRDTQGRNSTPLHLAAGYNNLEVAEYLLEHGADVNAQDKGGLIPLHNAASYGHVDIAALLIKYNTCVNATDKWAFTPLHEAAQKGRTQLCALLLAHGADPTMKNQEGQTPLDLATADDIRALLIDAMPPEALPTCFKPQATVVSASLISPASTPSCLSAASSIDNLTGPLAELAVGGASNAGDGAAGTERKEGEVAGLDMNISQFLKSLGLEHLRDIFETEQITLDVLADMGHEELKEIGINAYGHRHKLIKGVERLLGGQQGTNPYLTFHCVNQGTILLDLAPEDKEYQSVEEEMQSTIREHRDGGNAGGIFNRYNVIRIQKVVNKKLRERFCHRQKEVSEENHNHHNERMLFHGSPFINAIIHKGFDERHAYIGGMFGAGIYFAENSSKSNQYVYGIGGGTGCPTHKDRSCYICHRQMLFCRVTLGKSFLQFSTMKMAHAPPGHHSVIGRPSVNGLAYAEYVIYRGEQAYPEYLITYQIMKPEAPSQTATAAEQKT
The data set can be described thus: Inhibition of TNKS1 (unknown origin).

Data set [10] can be described thus: Oral bioavailability in mouse relative to control. In kind it is ADME, organism-based. To be noted: in vivo.
The nature of data set [11]: Antitumor activity against human MNNG/HOS cells xenografted in mouse assessed as decrease in tumor growth rate at 5 mg/kg, IT administered every other day for 12 days relative to control. It counts as functional, HOS-TE85. Also on record: scale not given: the % may be the effect or the level left. To be noted: time 12 day.
The target of data set [12] is T3, Poly [ADP-ribose] polymerase tankyrase-2. The data set can be described thus: Binding affinity to ARC4 domain at TNKS2 (unknown origin) assessed as dissociation constant.
Another data set in a line: physchem. To be noted: aqueous, pH 7.4.
Data set [13] can be described thus: Stability in mouse liver microsomes assessed as compound remaining measured after 30 mins relative to control. It counts as ADME, Microsome. To be noted: read-out: Stability. A general note: Liver microsomes are a subcellular fraction often used to study metabolism.
Data set [14] deals with T2, Poly [ADP-ribose] polymerase 1. The data set can be described thus: Inhibition of PARP1 (unknown origin) at 1 uM relative to control.
Data set [15] has as its target T1, Poly [ADP-ribose] polymerase 2. The data set can be described thus: Inhibition of PARP2 (unknown origin) at 1 uM relative to control.
In data set [16] the target is T5, Poly [ADP-ribose] polymerase tankyrase-2 (Homo sapiens) (UniProt Q9H2K2).
T5 sequence (whole entry): T3 sequence (Q9H2K2 whole entry)
In words: Inhibition of TNKS2 (unknown origin) at 1 uM relative to control.

Data set [17] concerns the target T6, Poly [ADP-ribose] polymerase tankyrase-1 (Homo sapiens) (UniProt O95271).
T6 sequence (whole entry): T4 sequence (O95271 whole entry)
The data set can be described thus: Inhibition of TNKS1 (unknown origin) at 1 uM relative to control.

The values that follow come from ChEMBL document CHEMBL5120795, “Small-Molecule Inhibitors of Tankyrases as Prospective Therapeutics for Cancer” (J Med Chem, 2022).

In brackets after ≈: the same amount, converted by molar mass. Bounds are passed on as bounds.

T2 sequence (P09874 whole entry): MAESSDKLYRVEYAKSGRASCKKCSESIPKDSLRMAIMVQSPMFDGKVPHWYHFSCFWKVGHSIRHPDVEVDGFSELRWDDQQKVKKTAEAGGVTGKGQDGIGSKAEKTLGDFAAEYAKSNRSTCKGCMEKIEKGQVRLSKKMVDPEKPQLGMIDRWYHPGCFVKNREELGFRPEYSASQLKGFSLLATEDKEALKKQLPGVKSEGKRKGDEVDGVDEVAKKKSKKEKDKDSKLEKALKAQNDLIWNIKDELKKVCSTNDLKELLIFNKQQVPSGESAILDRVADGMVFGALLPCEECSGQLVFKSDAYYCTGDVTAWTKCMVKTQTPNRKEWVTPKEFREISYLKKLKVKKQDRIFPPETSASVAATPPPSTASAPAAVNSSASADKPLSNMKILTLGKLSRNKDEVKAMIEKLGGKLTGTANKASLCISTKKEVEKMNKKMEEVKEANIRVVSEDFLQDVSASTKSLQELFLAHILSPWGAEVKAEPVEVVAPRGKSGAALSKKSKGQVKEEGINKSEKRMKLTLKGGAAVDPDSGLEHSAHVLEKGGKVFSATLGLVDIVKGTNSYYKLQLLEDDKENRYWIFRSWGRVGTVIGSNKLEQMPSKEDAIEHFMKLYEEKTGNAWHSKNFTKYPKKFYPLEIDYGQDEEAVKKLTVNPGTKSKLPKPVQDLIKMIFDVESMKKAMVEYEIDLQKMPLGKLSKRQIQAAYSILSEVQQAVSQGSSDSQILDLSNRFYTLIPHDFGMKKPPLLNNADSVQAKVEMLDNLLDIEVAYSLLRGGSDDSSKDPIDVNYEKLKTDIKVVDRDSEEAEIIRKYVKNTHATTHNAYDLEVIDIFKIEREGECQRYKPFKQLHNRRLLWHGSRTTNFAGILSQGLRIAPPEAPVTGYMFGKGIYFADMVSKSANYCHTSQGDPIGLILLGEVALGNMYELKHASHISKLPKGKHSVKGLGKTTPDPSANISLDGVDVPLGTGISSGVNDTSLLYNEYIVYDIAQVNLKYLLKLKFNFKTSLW
T1 sequence (Q9UGN5 whole entry): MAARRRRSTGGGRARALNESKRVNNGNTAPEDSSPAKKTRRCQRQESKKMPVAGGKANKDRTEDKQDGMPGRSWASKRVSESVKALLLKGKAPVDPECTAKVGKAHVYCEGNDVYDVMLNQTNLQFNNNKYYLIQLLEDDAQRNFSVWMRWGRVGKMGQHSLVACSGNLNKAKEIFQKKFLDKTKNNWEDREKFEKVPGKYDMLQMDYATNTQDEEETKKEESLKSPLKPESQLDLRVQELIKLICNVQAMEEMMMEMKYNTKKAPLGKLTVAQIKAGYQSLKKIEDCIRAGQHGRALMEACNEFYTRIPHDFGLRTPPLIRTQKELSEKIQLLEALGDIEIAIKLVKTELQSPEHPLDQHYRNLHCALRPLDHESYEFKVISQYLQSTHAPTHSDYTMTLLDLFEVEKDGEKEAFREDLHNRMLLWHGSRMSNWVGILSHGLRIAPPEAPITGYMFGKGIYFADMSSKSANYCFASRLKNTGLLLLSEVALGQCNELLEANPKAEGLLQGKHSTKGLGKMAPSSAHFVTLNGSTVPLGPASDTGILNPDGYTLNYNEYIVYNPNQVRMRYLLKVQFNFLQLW

For the compound `CCc1ccc(OCC(=O)Nc2sc(C)c(C)c2C(N)=O)c(F)c1`, the Ki – broadly, a dissociation constant, usually derived from enzyme kinetics or from competition with a known ligand – in [1] was 20500 nM.
Take `COc1ccc(-n2c(SCc3nc(-c4ccc(C)cc4)no3)nnc2-c2ccncc2)cc1`: the Activity was 35% in the data set with SW480 [2] and 33% in the data set with SW480 [3].
Take `Cc1cc(NCCc2ccc(O)cc2)c2nncn2n1`: the IC50 in data set [4] and in [5] was above 10000 nM in each case.
For the compound `COc1ccc(-n2c(SCCCN3C(=O)c4cccc5cccc(c45)C3=O)nnc2-c2ccncc2)cc1`, in [6], the IC50 – broadly, the midpoint of a concentration-inhibition curve – was 15 nM.
On to `CS(=O)(=O)c1ccc(-c2nnc(/C=C/c3nnc(-c4ccc(C#N)cc4)o3)n2-c2ccccc2Cl)nc1`, for which the Activity in data set [7] and in data set [8] was above 15% each time.
`O=C(Nc1cccc2c(=O)[nH]ccc12)[C@H]1CCCNC1`: the IC50 in data set [9] is 9 nM; in [6], 3 nM; in [5], above 10000 nM.
Take `C[C@@H]1CN(c2cc(F)c3c(c2)N(C)C(=O)C32CCN(c3nc4c(c(=O)[nH]3)CCCN4C)CC2)C[C@H](C)O1`: the bioavailability (as a rule, the share of a dose that reaches the circulation, judged against a reference dose that is usually intravenous) in [10] stood at 100%.
Consider `O=C(Nc1cccc2cccnc12)c1ccc(N2C(=O)[C@@H]3[C@H](C2=O)[C@@H]2C=C[C@H]3C2)cc1`, for which the Activity in [11] turned out to be 73%.
As to `COc1ccc(C2(CNC(=O)c3ccc(NC(=O)c4ccco4)cc3)CCOCC2)cc1`, the half-maximal inhibitory concentration (IC50) came out at 1900 nM in [6] and 1800 nM in data set [5].
Consider `CC(=O)N[C@@H](CCCNC(=N)N)C(=O)N[C@@H](CCC(=O)O)C(=O)N[C@H]1CCn2cc(nn2)-c2cc(C(=O)O)cc(c2)-c2cn(nn2)CC[C@@H](C(=O)N[C@@H](CCC(=O)O)C(N)=O)NC(=O)CNC(=O)[C@H](CC(=O)O)NC(=O)CNC1=O`, for which the dissociation constant Kd – broadly, the concentration at which binding is half-saturated – in data set [12] was 440 nM.
For `COc1ccccc1N1CCN(c2nc3c(c(=O)[nH]2)CCCC3)CC1`, in the data set “physchem”, the solubility (in general, the concentration that dissolves in the medium under given conditions) was found to be 10 µg/mL (≈ 29.4 µM). In addition, the remaining at 0.5 h in [13] came out at 0%. In data set [5], the IC50 was above 100000 nM.
In the case of `COc1cc2ncnc(N3CCC(CN4Cc5ccccc5N(c5ccc(F)c(C#N)c5)C4=O)CC3)c2cc1OC`, the inhibition (commonly the share of the control response that was lost under treatment) came out at 0% in data set [14], 0% in data set [15], 100% in [16] and 100% in data set [17].
Regarding `CC(=O)N[C@@H](CCCNC(=N)N)C(=O)N[C@@H](CCC(=O)O)C(=O)N[C@H]1CCn2cc(nn2)CCCc2cn(nn2)CC[C@@H](C(=O)N[C@@H](CCC(=O)O)C(N)=O)NC(=O)CNC(=O)[C@H](CC(=O)O)NC(=O)CNC1=O`, the Kd in data set [12] stood at 600 nM.
